Laboratory results: US12329774B2, “Method and composition for enhancing the quality and benefits of sleep” (priority 2020, dated 2025)

Legend:
[1] = system: brain serotonin, dopamine and melatonin; assay: Brain neurotransmitter levels by ELISA in caffeine-induced wakefulness mice; assay type: in vivo; settings: for Dopamine / Melatonin / Serotonin: brain, caffeine followed by saline (C) or test article (20 mg theanine/kg), ELISA, means and standard deviations
[2] = system: caffeine-induced wakefulness mice; assay: Caffeine-induced wakefulness mouse model: sleep latency, sleep duration, number falling asleep; assay type: in vivo; settings: caffeine-induced wake mouse; caffeine alone or + test article (20 mg theanine/kg)
Method: Animals and Experimental design: Seven male BALB/c mice per treatment arm (age: 8 weeks, weight: […]) were housed in a controlled environment with a 12:12-h light-dark cycle at 22° C. and were provided with mice chow and water ad libitum. All experiments were conducted under the National Institutes of Health's Guidelines for the Care and Use of Laboratory Animals and approved by the Ethics Committee of the Medipol University.
Drugs and materials: Study product was provided by Nutrition21 LLC (Mg-Theanate #1=lot AA209-122-20, Mg-Theanate #2=lot BLS-DN 13). […] The concentration of each drug solution was adjusted so that the volume injected was constant at 1.0 ml/kg BW. All drug solutions were prepared fresh daily, and were administered intraperitoneally (i.p.). […]

[3] = system: wakefulness; settings: 7.5 mg/kg i.p.; Kwon et al., 2006; cited from earlier work
[4] = system: MDA, SOD, CAT, GSHPx; assay: Brain antioxidant status in caffeine-induced wakefulness mice; assay type: in vivo; settings: for CAT / GSHPx / SOD / MDA: caffeine followed by saline (C) or test article (20 mg theanine/kg), means and standard deviations
Method: Animals were anesthetized with urethane ([…], i.p., Sigma U2500). Body temperature was maintained between 36.5 and 37° C. with homeothermic blanket. Mice were stabilized under a stereotaxic frame (World Precision Instruments, Berlin; Germany) and an incision was made on the skin along the anterior/posterior line of the skull. The left […] was removed gently with a dental drill (Marothon-3; Korea). Two Ag-AgCl sphere electrodes were placed over the left hemisphere with the reference electrode attached on the pinna. […] Brains were rapidly removed, frozen on dry ice and stored at -80° C. until analyses could be performed. Biochemical and Oxidative Stress Markers-Serum melatonin, serotonin, and dopamine were measured using ELISA kits. Brain levels of malondialdehyde (MDA) were measured by HPLC. Brain activities of superoxide dismutase (SOD), catalase (CAT) and glutathione peroxidase (GSHPx) were measured using ELISA kits for each analyte.

[5] = system: Bax, Bcl-2, Caspase-3, eNOS, iNOS; assay: Western blot of brain cell survival indicators in caffeine-induced wakefulness mice; settings: caffeine-induced wake mouse; result in words; listed as Theanine
[6] = system: stimulatory action of caffeine; settings: rats, EEG, Kakuda et al. [13]; cited from earlier work
[7] = system: sleep cycle; settings: Jang et al. [11], cited from earlier work
[8] = system: pentobarbital-induced sleep; assay: Pentobarbital-induced sleep test mouse model; assay type: in vivo, mice; settings: for Duration of sleep / Sleep latency period: pentobarbital 42 mg/kg, test article 20 mg theanine/kg per os 45 min before, result in words
Method: Subsequently, pentobarbital was administered intraperitoneally to induce a hypnotic state that promoted sleep. The effects on sleep of the test agents were monitored.
Pentobarbital-induced sleep was performed according to published methods with slight modifications. Mice were fasted for 24 h prior to the experiment. Each test article was dissolved or suspended in physiological saline and then was administered per os. The groups were administered doses of 20 mg/kg theanine, Mg-theanate #1 (20 mg theanine/kg), and Mg-theanate #2 (20 mg theanine/kg), respectively. Forty-five minutes later, a hypnotic dose of pentobarbital (42 mg/kg) was injected into the left side of the abdomen. After injection, the mice were placed in individual cages and subjected to measurements of sleep latency and duration. Sleep latency was defined as the period between pentobarbital injection and the loss of righting reflex (sleep onset), and sleep duration denoted the time elapsed between loss of the righting reflex and recovery.
Statistical Analyses—Data are shown as mean±SEM. Sample size was calculated based on a power of 85% and a p-value of 0.05. Given that assumption, a sample size of seven per treatment was calculated. The data were analyzed using the GLM procedure of SAS (SAS Institute: SAS User's Guide: Statistics). The treatments were compared using ANOVA and Student's unpaired t-test; P<0.05 was considered statistically significant.

[9] = system: brain waves (spike amplitude / spike frequency); assay: Electrocorticography (ECoG) of brain electrical activity in caffeine-induced wakefulness mice; assay type: in vivo; settings: caffeine-induced wake mouse; electrical activity over 120 minutes; result in words; listed as Theanine
Method: Animals were anesthetized with urethane ([…], i.p., Sigma U2500). Body temperature was maintained between 36.5 and 37° C. with homeothermic blanket. Mice were stabilized under a stereotaxic frame (World Precision Instruments, Berlin; Germany) and an incision was made on the skin along the anterior/posterior line of the skull. The left […] was removed gently with a dental drill (Marothon-3; Korea). Two Ag—AgCl sphere electrodes were placed over the left hemisphere with the reference electrode attached on the pinna.
Brains were rapidly removed, frozen on dry ice and stored at −80° C. until analyses could be performed.

[10] = Nathan [17]; cited from earlier work
[11] = Ates et al. [2]; comparison in words; cited from earlier work
[12] = 500 mg magnesium daily, 8 weeks, cited from earlier work
[13] = caffeine-induced wake mouse, result in words
[14] = caffeine-induced wake mouse model, 20 mg/kg

Compound | Dopamine [1] | Melatonin [1] | Serotonin [1] | CAT [4] | GSHPx [4] | SOD [4] | MDA [4] | Absorption (and bioavailability) of magnesium [11] | other results
Cn1c(=O)c2c(ncn2C)n(C)c1=O [C, Caffeine, reference compound] | 584.86 + 72.47d ng/g | 0.59 + 0.05a pg/g | 571.00 + 42.14d ng/g | 24.40 + 1.62a IU/mg protein | 12.07 + 2.89b IU/mg protein | 89.00 + 5.16a IU/mg protein | – | – | Neurotransmitter levels (brain serotonin, dopamine, and melatonin) [1, 13]: Caffeine: Levels of all three neurotransmitters were significantly reduced, reflecting the; Number of animals falling asleep (share of the group that fell asleep) [2]: Caffeine: only 50% of the group fell asleep; Sleep latency period [2]: Caffeine: The sleep latency period doubled to about 2 minutes in caffeine-treated animals.; Time for which wakefulness is maintained [3]: at least 2 h; Level of MDA (indicator of oxidative stress) [4, 13]: Caffeine: The level of MDA (an indicator of oxidative stress) was significantly increased,
CCNC(=O)CCC(N)C(=O)O [CMgT1, magnesium di-L-theanate] | 832.71 + 74.50bc ng/g | 0.80 + 0.03b pg/g | 762.29 + 25.34b ng/g | 36.47 + 1.27b IU/mg protein | – | 131.14 + 9.86b IU/mg protein | 2.24 + 0.14c nmol/g | – | –
CCNC(=O)CCC(N)C(=O)O [CMgT2, magnesium di-L-theanate] | 895.57 + 61.93ab ng/g | 0.85 + 0.04b pg/g | 751.43 + 30.34b ng/g | 35.96 + 2.52b IU/mg protein | 19.11 + 2.39ab IU/mg protein | 137.29 + 5.99b IU/mg protein | 2.24 + 0.09c nmol/g | – | –
CCNC(=O)CCC(N)C(=O)O (stereo not shown) [CT, 2-amino-4-(ethylcarbamoyl)-butyric acid, reference compound] | 779.00 + 77.73c ng/g | 0.69 + 0.08c pg/g | 655.43 + 35.46c ng/g | 29.51 + 2.06c IU/mg protein | 15.56 + 7.94ab IU/mg protein | 117.14 + 13.89c IU/mg protein | 2.46 + 0.17b nmol/g | – | Brain cell survival (Bax, Bcl-2, Caspase-3, eNOS, and iNOS, indicators of cell damage) [5]: + Theanine: Administration of theanine caused trends toward normalization of these; Intravenous dose that could inhibit the stimulatory action of caffeine [6]: higher than 0.78 mg/kg; REM time during the sleep cycle [7, 14]: increases; Sleep latency [7, 14]: significantly decrease; Sleep time [7, 14]: increase; NREM time, chronic administration ([7]; chronic administration): significant increase; NREM time, single doses ([7]; single doses): little effect; Number of animals falling asleep (share of the group that fell asleep) [2]: + Theanine: 62.5% of the group fell asleep; Sleep latency period [2]: + Theanine: The sleep latency period increased from about 1 to about 1.5 minute, a minutes; Animals that failed to sleep during the 10-minute period following pentobarbital administration ([8]; 20 mg/kg per os): About 62%; Duration of sleep [8]: significantly increased; Sleep latency period [8]: significantly reduced; Duration of sleep ([8]; listed as L-theanine): significantly increased; Sleep latency period ([8]; listed as L-theanine): significantly decreased; Amplitude of brain waves [9]: + Theanine: Within about 30 minutes, the amplitude of brain waves increased significantly; Spike frequency of electrical activity in the brain [9]: significantly reduced, as compared to caffeine-treated animals.; Time to cross the blood-brain barrier after oral administration [10]: ≤ 30 min; Levels of protective enzymes (SOD, CAT, GSHPx) ([4]; caffeine-induced wake mouse, result in words, listed as Theanine): decreased, but the changes were not as great as those shown by caffeine treatment.
O=C([O-])CC(O)C(=O)[O-].[Mg+2] (stereo not shown) [magnesium malate] | – | – | – | – | – | – | – | more poorly absorbed than certain magnesium complexes with amino acids | –
[Mg+2] [magnesium] | – | – | – | – | – | – | – | – | Concentration of serum renin vs placebo ([12]; P<0.001): statistically significant increases; Sleep time vs placebo ([12]; P=0.002): statistically significant increases; Concentration of melatonin vs placebo ([12]; P=0.007): statistically significant increases; Sleep efficiency vs placebo ([12]; P=0.03): statistically significant increases; Early morning wakening time [12]: shortened; Insomnia Severity Index scores ([12]; subjective measure): improved
magnesium acetyl taurate | – | – | – | – | – | – | – | significantly better absorption and bioavailability than magnesium glycinate | –
magnesium citrate | – | – | – | – | – | – | – | more poorly absorbed than certain magnesium complexes with amino acids | –
